Laboratory results reported in patent US10577340B1, “Beraprost-314d crystals and methods for preparation thereof” (CHIROGATE INTERNATIONAL INC., priority 2018, dated 2020).
Entries after “also recorded” stand apart in the source; their conditions may differ.

Legend:
[1] = Crystalline form transformation from Form III to Form II at room temperature; assay type: physicochemical; conditions: FIG. 5
Method: (§1) X-ray Powder Diffraction (XRPD) Analysis: The XRPD patterns were collected on a Bruker D2 PHASER diffractometer with fixed divergence slits and ID LYNXEYE detector. The samples (ca. 100 mg) were flatly placed on a sample holder. The prepared samples were analyzed over a […] from 5° to 50° with step size of 0.02 degrees and step time of 1 second using CuKα radiation at a power of 10 mA and 30 kV. The CuKβ radiation was removed by a divergent beam nickel filter.
The Beraprost-314d crystal Form III (0.5 g, from Example 5) was placed in a glass vial, and isothermal at room temperature for 1 day.

[2] = Storage stability of the crystalline form (crystalline form change, degradation products); assay type: physicochemical; conditions: six months
Method: as §1

Beraprost-314d [Beraprost-314d crystal Form III]
crystalline form transformation ([1]; glass vial, isothermal at room temperature for 1 day): completely converted to Beraprost-314d crystal Form II | time until conversion to Beraprost-314d crystal Form II ([1]; keeping at room temperature): ≤ 1 days

Beraprost-314d [Beraprost-314d crystal Form II]
stability during storage (other crystalline forms, degraded products) ([2]; normal storage temperatures (about −20° C.)): no other crystalline forms or degraded products of impurities; also recorded: good stability with no other crystalline forms | stability during storage (other crystalline forms) ([2]; room temperature (about 20 to 25° C.)): good stability with no other crystalline forms
